In patent US20080071116A1, “Modulators of Lysophosphatidic Acid (Lpa) Signaling and the Use Thereof” (THE BOARD OF REGENTS OF THE UNIVERSITY OF TEXAS SYSTEM, priority 2004, published 2008):
Entries after “also recorded” stand apart in the source; their conditions may differ.

Assays:
DU145 cells [1] = test: calcium mobilization assay in androgen insensitive prostate cancer DU145 cells; format: cell-based, human
PC-3 cells [2] = test: cell growth (cell viability) in PC-3 cells; format: cell-based, human; conditions: for inhibition of cell growth (cell viability): PC-3
PC-3 cells [3] = test: lamellipodia formation in PC-3 cells; format: cell-based, human; conditions: 30 μM; for effect on spontaneously activated lamellipodia: PC-3, serum-free, FIGS. 38-40; for inhibition of 18:1 LPA-induced lamellipodia formation: PC-3, FIGS. 42-44
HT29 cells [4] = test: calcium mobilization assay in colon cancer HT29 cells; format: cell-based
Protocol: (§1) The procedures for these calcium mobilization assays are as followed: OVCAR3 cells and PC-3 cells were cultured in RPMI 1640 medium with 10% FBS (fetal bovine serum). HT29 cells were cultured in DMEM (high glucose) medium with 10% FBS. All cells were cultured at about 37° C. in a humidified atmosphere with 5% CO2. After starvation in serum-free medium for about 12-24 hours, cells were harvested and loaded with about 1 μM of Indo-1 AM in serum-free medium for about 45 min at 37° C. Cells were washed in PBS and resuspended at 2×10^6 cells/ml in a [Ca^2+]i assay buffer (Sodium chloride, NaCl, about 140 mM, potassium chloride, KCl, about 2 mM, magnesium chloride, MgCl2, about 1 mM, calcium chloride, CaCl2, about 2 mM, in about 25 mM HEPES buffer at pH 7.4 with about 10 mM of glucose). Cytoplasmic [Ca^2+]i was determined at an excitation wavelength of about 331 nm and an emission wavelength of 410 nm using a fluorescence spectrophotometer (Hitachi, F-4000). Approximately 3×10^6 cells were used for [Ca^2+]l determination in a stirred quartz cuvette kept at about 37° C. OMPT or 18:1 LPA was dissolved in about 0.1% BSA/PBS solution and applied immediately to the cells. To test other LPA derivatives of the invention, cells were exposed to the derivatives for about 3 minutes or for a period of various times in time course related experiments before a LPA agonist, such as 18:1 LPA, OMPT, or other LPAs was applied into the cuvette.
(§2) The concentration of calcium mobilization giving the half-maximal response (EC50) was obtained from the concentration-response curve fitted to a sigmoidal logistic equation, with the maximal calcium response set to 100% using the GraphPad Prism. Maximal response value is expressed as mean +/−s.e.m. EC50 value is expressed with 95% confidence.

DU145 cells [5] = test: cell growth (cell viability) in DU145 cells; format: cell-based, human
PC-3 cells [6] = test: calcium mobilization assay in androgen insensitive prostate cancer PC-3 cells; format: cell-based, human
Protocol: as §1, §2

PKA = PKA activation in PC-3 cells; format: cell-based, human
[7] = test system: vasodilator-stimulated protein (VASP); test: VASP phosphorylation in PC-3 cells; format: cell-based, human
Protocol: (§3) The cells were then lysed in SDA sample buffer or ice-cold X-100 lysis buffer (1% Triton X-100, 50 mM HEPES [pH7.4], 150 mM NaCl, 1.5 mM MgCl2, 1 mM EGTA, 10% glycerol, 100 mM NaF, 10 mM Na pyrophosphate, and 1 mM aprotinin). Total cellular protein was resolved by SDS/PAGE, transferred to immobilon [poly (vinylidene difluoride)], and immunoblotted with antibodies following the protocols provided by manufactures. Immunocomplexes were visualized with an enhanced chemiluminescence detection kit (Amersham Pharmacia) using horseradish peroxidase-conjugated secondary antibodies (Bio-Rad).
To determine the mechanisms regulating LPA-induced cell migration, actin filament binding proteins that link receptor signaling to lamellipodia formation were evaluated.

PC-3 cells [8] = test: membrane ruffling and cell migration in PC-3 cells; format: cell-based, human
HT29 cells [9] = test: lamellipodia formation in colon cancer HT29 cells; format: cell-based; conditions: HT29, FIG. 26
LPA2 receptor [10] = target: T1, LPA2 receptor (Homo sapiens, UniProt Q9HBW0); test: calcium mobilization in Sf9 insect cells expressing LPA2; format: cell-based; parameters: expressed in transfected cells; host or cells: Sf9 insect cells; conditions: Sf9 cells expressing LPA2; read-out: EC50 of increase in intracellular calcium concentration
T1 sequence (Q9HBW0 whole entry): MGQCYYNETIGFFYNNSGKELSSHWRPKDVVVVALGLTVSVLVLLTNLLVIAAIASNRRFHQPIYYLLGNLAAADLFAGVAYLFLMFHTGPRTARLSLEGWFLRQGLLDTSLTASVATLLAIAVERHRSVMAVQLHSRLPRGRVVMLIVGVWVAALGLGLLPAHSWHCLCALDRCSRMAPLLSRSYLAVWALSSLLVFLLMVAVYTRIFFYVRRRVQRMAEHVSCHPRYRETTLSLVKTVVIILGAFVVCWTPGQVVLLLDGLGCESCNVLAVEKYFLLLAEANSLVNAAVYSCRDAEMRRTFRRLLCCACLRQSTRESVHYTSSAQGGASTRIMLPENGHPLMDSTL

ERK1/2 = ERK1/2 (p42/p44-MAPK) phosphorylation immunoblot in prostate cancer cells; format: cell-based, human
Protocol: as §3

PC-3 cells [11] = test: cellular proliferation and growth factor withdrawal-induced apoptosis; format: cell-based, human
p38-MAPK = p38-MAPK activation, phosphospecific antibodies; format: cell-based, human; conditions: PC-3 and DU145 cells
Protocol: as §3

LPA3 receptor [12] = target: T2, LPA3 receptor (Homo sapiens, UniProt Q9UBY5); test: calcium mobilization in Sf9 insect cells expressing LPA3; format: cell-based; parameters: expressed in transfected cells; host or cells: Sf9 insect cells
T2 sequence (Q9UBY5 1-353): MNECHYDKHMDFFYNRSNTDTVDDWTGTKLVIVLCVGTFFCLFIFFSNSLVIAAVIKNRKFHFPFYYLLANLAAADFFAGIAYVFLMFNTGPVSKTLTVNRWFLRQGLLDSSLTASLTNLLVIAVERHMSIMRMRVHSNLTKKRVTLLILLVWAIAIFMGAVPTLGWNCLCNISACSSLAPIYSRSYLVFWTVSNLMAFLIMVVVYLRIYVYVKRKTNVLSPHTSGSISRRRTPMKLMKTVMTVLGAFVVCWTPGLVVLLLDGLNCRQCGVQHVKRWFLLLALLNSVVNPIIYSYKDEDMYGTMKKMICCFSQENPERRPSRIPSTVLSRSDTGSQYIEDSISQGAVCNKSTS

LPA1 receptor [13] = target: T3, LPA1 receptor (Homo sapiens, UniProt Q92633); test: calcium mobilization in Sf9 insect cells expressing LPA1; format: cell-based; conditions: Sf9 cells expressing LPA1
T3 sequence (Q92633 whole entry): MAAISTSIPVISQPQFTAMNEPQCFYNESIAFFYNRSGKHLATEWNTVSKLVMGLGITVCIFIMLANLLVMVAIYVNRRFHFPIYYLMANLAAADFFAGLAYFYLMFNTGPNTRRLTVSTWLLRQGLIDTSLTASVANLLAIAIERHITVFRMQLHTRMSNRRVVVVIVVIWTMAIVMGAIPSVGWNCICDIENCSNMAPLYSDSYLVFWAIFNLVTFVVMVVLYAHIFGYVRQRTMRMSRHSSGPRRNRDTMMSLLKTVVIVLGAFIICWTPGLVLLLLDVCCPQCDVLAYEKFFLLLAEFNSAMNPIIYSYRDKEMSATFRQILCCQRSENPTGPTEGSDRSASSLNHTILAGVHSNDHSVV

AKT = AKT phosphorylation immunoblot in prostate cancer cells; format: cell-based, human; conditions: PC-3 and DU145 cells
Protocol: as §3

OVCAR3 cells = test: calcium mobilization assay in ovarian cancer OVCAR3 cells; format: cell-based, human; conditions: OVCAR3
Protocol: as §1, §2

DU145 cells [14] = test: cell migration of DU145 cells; format: cell-based, human
LPA1 receptor [15] = target: T3, LPA1 receptor; test: HA-Erk1 phosphorylation in HEK 293 T cells transfected with LPA1; format: cell-based; parameters: FLAG; expressed in transfected cells; host or cells: HEK 293 T cells; conditions: LPA1 transfected HEK 293 T; 0.01, 0.1, or 1 μM
Text: (§4) We have also tested kinase activation by the LPA3 receptor subtype using OMPT as a tool. We determined whether activation of the LPA3 receptor by OMPT can be linked to ERK activation (related to MAP kinase signaling pathway) in mammalian cells, HEK 293 T cells, by co-transfecting hemagglutinin (HA)-tagged Erk1 (HA-Erk1) with either a control vector or an expression vector having LPA1, LPA2, or LPA3. […] There is no phosphorylation of HA-Erk1 at lower concentration of LPA or OMPT in the absence of LPA receptors. […] Thus, the data confirmed that OMPT, an LPA derivative, is a selective agonist for LPA3 receptor subtype, capable of inducing MAPK activation.

LPA3 receptor [16] = target: T2, LPA3 receptor; test: HA-Erk1 phosphorylation in HEK 293 T cells transfected with LPA3; format: cell-based; parameters: expressed in transfected cells; conditions: LPA3 transfected HEK 293 T; 0.01, 0.1, or 1 μM
Text: as §4

LNCaP cells = test: calcium mobilization in androgen sensitive prostate cancer LNCaP cells; format: cell-based
interleukin-8 (IL-8) = test: IL-8 transcription and secretion; format: cell-based, human; conditions: PC-3 cells
LPA2 receptor [17] = target: T1, LPA2 receptor; test: HA-Erk1 phosphorylation in HEK 293 T cells transfected with LPA2; format: cell-based; parameters: expressed in transfected cells; conditions: LPA2 transfected HEK 293 T; 0.01, 0.1, or 1 μM
Text: as §4

Jurkat T cells = conditions: human Jurkat T cells; Xu et al. 1995; cited from earlier work
[18] = in the presence of 10 μM of 18:1 LPA, FIGS. 45-47

With `CCCCCCCCCCCCCC(=O)OC[C@@H](O)COP(=O)(O)OCC(O)CO` (mixture of isomers) [14:0 LPG, 1-myristoyl-2-hydroxy-sn-glycero-3-[phospho-rac-(1-glycerol)]] the “inhibition of 14:0 LPA-induced calcium mobilization” value (DU145 cells [1]) was “inhibited calcium mobilization; also recorded: effective inhibitor/antagonist”, the “inhibition of cell growth (cell viability)” value (“inhibition of cell growth” below) (PC-3 cells [2]; [18]) was “inhibition of cell growth (cell viability) at high concentrations” and the “effect on spontaneously activated lamellipodia” value (PC-3 cells [3]) was “negligible effect”. For the same compound, the “inhibition of 18:1 LPA-induced lamellipodia formation” value (PC-3 cells [3]) was “no inhibition”.
In the case of `CCCCCCCC/C=C\CCCCCCCC(=O)OC[C@@H](O)COP(=O)(O)OCC(O)CO` (mixture of isomers) [18:1 LPG, 1-oleoyl-2-hydroxy-sn-glycero-3-[phospho-rac-(1-glycerol)]], the “antagonism of 18:1 LPA-induced calcium mobilization” value (DU145 cells [1]; 10 and 30 μM in FIGS. 15-18) is reported as “completely antagonized”, the “antagonism of 18:1 LPA-induced calcium mobilization” value (DU145 cells [1]; 10 and 30 μM in FIGS. 15-18, listed as 18:1-acyl-LPG) is reported as “shifted to the right” and the “inhibition of cell growth” value (PC-3 cells [2]; [18]) is reported as “inhibition of cell growth (cell viability) at high concentrations”. The “inhibition of cell growth” value (PC-3 cells [2]; without LPA, FIGS. 46-47) was “inhibition of cell growth (cell viability) at high concentrations”, the “reduction of cell viability / cell growth” value (PC-3 cells [2]; PC-3 cells) was “reduced cell viability” and the “inhibition of (18:1) LPA-induced calcium mobilization” value (HT29 cells [4]; HT29 cells (only express LPA2), FIGS. 21-22) was “effective inhibitors/antagonists”. The “reduction of cell viability / cell growth” value (DU145 cells [5]) was “reduced cell viability”, the “inhibition of OMPT-induced calcium mobilization” value (PC-3 cells [6]; FIGS. 19-20) was “effective inhibitor/antagonist” and the “effect on spontaneously activated lamellipodia” value (PC-3 cells [3]) was “inhibit spontaneously activated lamellipodia”. For the same compound, the “inhibition of 18:1 LPA-induced lamellipodia formation” value (PC-3 cells [3]) was “inhibition of 18:1 LPA-induced LPA2 receptor mediated lamellipodia formation”.
In the case of `CCCCCCCCCCCCCC(=O)OC[C@@H](O)COP(=O)(O)O` [14:0 LPA, reference compound], the “activation of PKA” value (PKA) is reported as “efficiently activate PKA”, the “induction of VASP phosphorylation at Ser157 PKA site” value [7] is reported as “induced phosphorylation” and the “stimulation of membrane ruffling and cell migration” value (PC-3 cells [8]) is reported as “stimulate membrane ruffling and cell migration”. The activation of lamellipodia (HT29 cells [9]) was “strong activator of lamellipodia”, the EC50 (LPA2 receptor [10]) was 0.1 nM and the “activation of p42/p44-MAPK” value (ERK1/2; PC-3 and DU145 cells) was “efficiently activates p42/p44-MAPK”. The “cellular proliferation and prevention of growth factor withdrawal-induced apoptosis” value (PC-3 cells [11]) was “does not increase cellular proliferation”, the EC50 (PC-3 cells [6]) was ~98 nM and the “activation of p38-MAPK” value (p38-MAPK) was “only marginal effects”. The calcium mobilization (LPA3 receptor [12]) was “no elevated intracellular calcium concentration is observed”, the “elevation of intracellular calcium” value (LPA1 receptor [13]) was “no elevated intracellular calcium concentration is observed” and the “activation of AKT” value (AKT) was “only marginal effects”.
In the case of `O=S(=O)(NCCNC/C=C/c1ccc(Br)cc1)c1cccc2cnccc12` [H-89], the “inhibition of membrane ruffling and cell migration induced by 18:1 LPA and 14:0 LPA” value (PC-3 cells [8]) is reported as “completely inhibited membrane ruffling and cell migration”.
With “D-3-deoxy-phosphophatidyl-myo-inositol ether lipid [DPIEL]” the “inhibition of VASP phosphorylation” value [7] was “inhibits phosphorylation of vasodilator stimulated protein (VASP)”, the “inhibition of (18:1) LPA-induced calcium mobilization” value (HT29 cells [4]; HT29 cells (express only LPA2), FIG. 6) was “does not inhibit calcium mobilization” and the “inhibition of LPA-induced cell migration” value (PC-3 cells [8]) was “inhibits”. For the same compound, the “inhibition of EGF-induced phosphorylation of ERK1/2” value (ERK1/2; LNCaP cells, FIG. 8B) was “fails to reduce EGF-induced phosphorylation of ERK1/2”, the “inhibition of ERK1/2 phosphorylation activated by 18:1 LPA and 14:0 LPA” value (ERK1/2; PC-3 cells, DPIEL about 30 minutes, FIG. 8A) was “inhibits phosphorylation of the extracellular signal-regulating kinase (ERK1/2)” and the “maximum calcium response to OMPT” value (OVCAR3 cells; DPIEL about 10 μM exposed group (control about 123.5+/−16.4 nM)) was “about 136.1+/−16.6 nM”. The “suppression of the maximum response to OMPT” value (OVCAR3 cells; about 20 μM DPIEL) was “about 36%”, the “suppression of maximum calcium mobilization induced by 18:1 LPA” value (PC-3 cells [6]; FIG. 7) was “about 56%” and the “inhibition of LPA-induced cell migration” value (DU145 cells [14]) was “inhibits”.
With EGF: epidermal growth factor the “induction of VASP phosphorylation at Ser157 PKA site” value [7] was “Neither OMPT nor EGF increased phosphorylation of VASP”.
In the case of “lysophosphatidic acid [LPA, reference compound]”, the HA-Erk1 phosphorylation (LPA1 receptor [15]) is reported as “stimulates phosphorylation of HA-Erk1 in a dose-dependent manner”, the HA-Erk1 phosphorylation (LPA3 receptor [16]) is reported as “stimulates phosphorylation of HA-Erk1 in a dose-dependent manner” and the calcium mobilization (LNCaP cells) is reported as “does not induce the increase of intracellular calcium concentration”. The “IL-8 transcription and secretion” value (interleukin-8 (IL-8)) was “increases interleukin-8 (IL-8) transcription and stimulates IL-8 secretion” and the HA-Erk1 phosphorylation (LPA2 receptor [17]) was “stimulates phosphorylation of HA-Erk1 in a dose-dependent manner”.
In the case of lysophosphatidyl glycerol [LPG], the “inhibition of LPA signaling” value (Jurkat T cells) is given as “inhibitor of LPA signaling”.
